Experimental data from patent US20060079696A1, “Substituted compounds derived from N-(benzyl)phenylacetamide, preparation and uses” (GENFIT, priority 2004, published 2006).

Columns and labels:
Male Sprague-Dawley rats = assay: Glycemia and insulinemia after oral administration in fasted rats; format: in vivo, rat
Text: In normal animals (as in man), the consequence of the administration of insulinotropic compounds is a significant increase in the plasmatic level of insulin. This induced hyperinsulinemia induces a reduction in glycemia. This example studies the evolution of glycemia and of insulinemia following oral administration of the inventive compounds in rats: the insulinotropic action of the compounds in vivo should induce a significant decrease of glycemia.
Male Sprague-Dawley rats (300-320 g) (CERJ—Le Genest St Isle-France) were used in order to carry out this experiment. The rats were fed with a standard diet of granular material; they had free access to food and drink and were kept in individual, ventilated cages in a 12 hr/12 hr light/dark rhythm. The animals were deprived of food for 16 hours prior to the experiment.
The compound was suspended in an aqueous carboxymethylcellulose solution (Sigma C4888) at 1% containing 0.1% Tween80 (Sigma P8074). The animals of the control group received the vehicle alone. The treated animals received a single administration of the compound (the suspension was administered by gavage at the rate of 10 ml/kg). Each group was made up of 11 animals. A 1st blood sample was taken by puncturing the retro-orbital sinus of the animals under volatile isoflurane anaesthesia: this sample makes up the initial time of the experiment. The substance or the vehicle were immediately administered to the animals by gavage, and blood samples were taken over time.
The animals' glycemia was measured in real time using a glucometer (Glucotrend2-Roche Diagnostic-France). The insulinemias were measured using an ELISA kit (Insulin Elisa Kit—Crystal Chem. USA). The method used was of the ELISA type: plasmatic insulin was specifically bound to anti-insulin monoclonal antibodies immobilised on the microtitration plate; simultaneously, an anti-insulin polyclonal guinea pig antibody was added to the reaction. The revelation of the reaction was guaranteed by an antibody coupled to peroxidase. These antibodies bind specifically to the guinea pig's immunoglobulins. The production of oxidised chromogen causes an increase in absorbance in proportion to the quantity of insulin present in the sample.

[1] = target: T1, ATP-dependent potassium channels (K+ATP) (Rattus norvegicus, UniProt Q09429); assay: [3H]glibenclamide binding to ATP-dependent potassium channels of rat cerebral cortex; conditions: FIG. 2
T1 construct: the potassium channels derive from a rat's cerebral cortex; tissue CEREP; host or cells: rat cerebral cortex
In short: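 Rat cerebral cortex membranes incubated 1 h at 22° C with 0.1 nM [3H]glibenclamide; nonspecific binding defined with 1 μM unlabelled glibenclamide. Compounds tested at 3–300 nM; values are percent inhibition of specific binding.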

[2] = system: isolated human pancreatic islets; assay: Insulin secretion by isolated human pancreatic islets; format: cell-based; conditions: 1 hour incubation
Procedure: Isolated islets of Langerhans were put together with compounds according to the invention. They were incubated for one hour, and then the supernatant was taken off. The insulin contained in the supernatant (which corresponds to the insulin secreted by the islets over 1 hr) was titrated. It was compared to the basal secretion of insulin, i.e. to the quantity of insulin secreted by the islets over 1 hour in the absence of a compound. The higher the induced insulin/basal insulin ratio, the stronger the insulinotropic potential of the compound.
This study was carried out in the cellular therapy of diabetes laboratory led by Professor Pattou (INSERM ERIT-M 0106, Faculty of medicine of Lille, France (59)). The protocols for the extraction of islets and culture are published (Riachy, Vandewalle et al. 2001). The islets were cultured in a CMRL1066 (Gibco BRL) medium containing 5.5 mmol/l glucose. They were put together with the compounds (+0.001% DMSO). The insulin secreted was measured after 1 hour incubation (titration of the supernatant after centrifugation and extraction as described in the reference) according to a radioimmunological titration method (BI-INSULIN IRMA kit, Sanofi Diagnostics Pasteur). Each condition was applied to 5 independent islets preparations, each containing 40 equivalent islets (40 IE). […]

T1 sequence (Q09429 whole entry): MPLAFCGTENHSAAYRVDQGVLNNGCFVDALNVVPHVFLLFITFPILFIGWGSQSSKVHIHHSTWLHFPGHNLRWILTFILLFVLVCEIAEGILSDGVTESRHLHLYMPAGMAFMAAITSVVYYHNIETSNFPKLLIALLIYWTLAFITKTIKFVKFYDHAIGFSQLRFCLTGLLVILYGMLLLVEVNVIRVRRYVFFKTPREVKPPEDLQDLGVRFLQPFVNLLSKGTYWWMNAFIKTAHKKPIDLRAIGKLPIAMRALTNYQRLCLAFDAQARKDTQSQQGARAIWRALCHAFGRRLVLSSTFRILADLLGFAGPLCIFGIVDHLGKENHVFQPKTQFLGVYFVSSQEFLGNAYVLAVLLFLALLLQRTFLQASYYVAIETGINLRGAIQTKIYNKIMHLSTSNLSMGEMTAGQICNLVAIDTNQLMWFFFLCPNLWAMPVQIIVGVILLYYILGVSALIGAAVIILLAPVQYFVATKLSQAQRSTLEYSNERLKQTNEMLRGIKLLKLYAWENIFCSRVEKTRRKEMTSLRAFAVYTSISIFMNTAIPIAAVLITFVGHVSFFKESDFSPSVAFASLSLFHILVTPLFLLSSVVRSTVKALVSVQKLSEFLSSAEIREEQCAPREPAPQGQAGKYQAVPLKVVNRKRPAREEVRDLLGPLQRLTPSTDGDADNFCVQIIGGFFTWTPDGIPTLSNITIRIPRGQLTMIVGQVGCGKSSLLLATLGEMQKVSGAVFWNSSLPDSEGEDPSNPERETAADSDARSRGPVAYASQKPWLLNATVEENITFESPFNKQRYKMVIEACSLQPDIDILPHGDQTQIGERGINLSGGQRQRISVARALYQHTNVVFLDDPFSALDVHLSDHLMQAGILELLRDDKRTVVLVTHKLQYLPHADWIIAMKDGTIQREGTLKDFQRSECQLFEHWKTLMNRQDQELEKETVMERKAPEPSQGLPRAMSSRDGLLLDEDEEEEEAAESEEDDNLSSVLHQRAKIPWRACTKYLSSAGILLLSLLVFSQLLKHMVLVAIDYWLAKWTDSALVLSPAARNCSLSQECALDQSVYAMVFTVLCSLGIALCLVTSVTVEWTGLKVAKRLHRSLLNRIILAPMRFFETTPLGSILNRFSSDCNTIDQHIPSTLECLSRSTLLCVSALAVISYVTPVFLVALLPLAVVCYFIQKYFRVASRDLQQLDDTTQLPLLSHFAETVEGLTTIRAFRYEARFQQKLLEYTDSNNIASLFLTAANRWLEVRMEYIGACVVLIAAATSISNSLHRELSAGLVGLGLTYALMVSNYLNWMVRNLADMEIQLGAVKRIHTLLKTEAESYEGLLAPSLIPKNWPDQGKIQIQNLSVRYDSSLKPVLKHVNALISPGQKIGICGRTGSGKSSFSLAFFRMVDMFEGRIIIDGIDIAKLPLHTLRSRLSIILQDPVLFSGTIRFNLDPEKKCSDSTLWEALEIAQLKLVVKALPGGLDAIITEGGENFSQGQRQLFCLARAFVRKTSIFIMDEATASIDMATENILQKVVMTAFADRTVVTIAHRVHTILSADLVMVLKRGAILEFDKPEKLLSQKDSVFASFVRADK
T1 sequence (P70673 whole entry partner): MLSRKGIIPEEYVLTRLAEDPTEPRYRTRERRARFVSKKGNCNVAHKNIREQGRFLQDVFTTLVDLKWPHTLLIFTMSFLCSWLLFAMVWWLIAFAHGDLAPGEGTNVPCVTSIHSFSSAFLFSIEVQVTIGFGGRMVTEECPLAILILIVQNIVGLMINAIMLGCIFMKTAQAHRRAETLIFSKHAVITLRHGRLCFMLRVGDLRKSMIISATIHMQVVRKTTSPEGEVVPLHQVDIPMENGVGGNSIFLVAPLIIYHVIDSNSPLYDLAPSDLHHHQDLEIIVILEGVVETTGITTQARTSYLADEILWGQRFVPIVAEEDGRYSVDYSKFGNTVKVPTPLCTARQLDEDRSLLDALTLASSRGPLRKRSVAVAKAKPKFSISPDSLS

With `CC(C)CC(NC(=O)Cc1ccc(OC(C)(C)C(=O)O)cc1)c1ccccc1N1CCCCC1` (stereo not drawn) [Compound 1, 2-[4-[1-(3-methyl-1-(2-(1-piperidinyl)phenyl)butyl)aminocarbonylmethyl]phenoxy]-2-methylpropanoic acid] the “decrease in glycemia between T=0 and T=120 min” value (Male Sprague-Dawley rats; 50 mpk, oral, fasted rat) was 48%, the “plasmatic insulin peak, time following administration” value (Male Sprague-Dawley rats; 50 mpk, oral, fasted rat) was 15 min and the “hypoglycemia kinetics and amplitude compared with compound 52” value (Male Sprague-Dawley rats; comparison of FIGS. 5a and 5c) was “faster and more intense”. The IC50 [1] was 14 nM, the “insulinotropic activity on human islets” value ([2]; 0.1 μM) was “not having any significant insulinotropic activity” and the “insulin secreted in 1 hour versus non-treated islets” value ([2]; 1 μM) was about 4 times.
